Assays:
Assay in all cases: radiometric filter-binding kinase assay, Kinase HotSpot
Details in all cases: compound 0.5 µM; ATP 10 µM
PHKG1 (human) = PHKG1 (human) (UniProt Q16816)
RIPK2 (human) = RIPK2 (human) (UniProt O43353)
MAP3K5 (human) = MAP3K5 (human) (UniProt Q99683)
MAPK11 (human) = MAPK11 (human) (UniProt Q15759)
FYN (human) = FYN (human) (UniProt P06241)
STK17A (human) = STK17A (human) (UniProt Q9UEE5)
PIM1 (human) = PIM1 (human) (UniProt P11309)
TEC (human) = TEC (human) (UniProt P42680)
CDC42BPB (human) = CDC42BPB (human) (UniProt Q9Y5S2)
NEK2 (human) = NEK2 (human) (UniProt P51955)
ACVR1 (human) = ACVR1 (human) (UniProt Q04771)
EPHA2 (human) = EPHA2 (human) (UniProt P29317)
ROCK1 (human) = ROCK1 (human) (UniProt Q13464)
PAK4 (human) = PAK4 (human) (UniProt O96013)
MERTK (human) = MERTK (human) (UniProt Q12866)
CDK4 CCND1 (human) = CDK4 CCND1 (human) (UniProt P24385+P11802)
PRKCB1 (human) = PRKCB1 (human) (UniProt P05771)
FER (human) = FER (human) (UniProt P16591)
ERBB2 (human) = ERBB2 (human) (UniProt P04626)
AKT1 (human) = AKT1 (human) (UniProt P31749)
EPHB3 (human) = EPHB3 (human) (UniProt P54753)
MAPK14 (human) = MAPK14 (human) (UniProt Q16539)
CDK6 CCND1 (human) = CDK6 CCND1 (human) (UniProt Q00534+P24385)
CHEK2 (human) = CHEK2 (human) (UniProt O96017)
CLK3 (human) = CLK3 (human) (UniProt P49761)
CDK4 CCND3 (human) = CDK4 CCND3 (human) (UniProt P30281+P11802)
DAPK1 (human) = DAPK1 (human) (UniProt P53355)
MST1R (human) = MST1R (human) (UniProt Q04912)
DCLK2 (human) = DCLK2 (human) (UniProt Q8N568)
PLK1 (human) = PLK1 (human) (UniProt P53350)
MAPK12 (human) = MAPK12 (human) (UniProt P53778)
TGFBR2 (human) = TGFBR2 (human) (UniProt P37173)
PDGFRA (human) = PDGFRA (human) (UniProt P16234)
JAK3 JH1 JH2 (human) = JAK3 JH1 JH2 (human) (UniProt P52333)
TBK1 (human) = TBK1 (human) (UniProt Q9UHD2)
CSNK1D (human) = CSNK1D (human) (UniProt P48730)
[1] = target: TYK2 JH1 catalytic (human) (UniProt P29597)
AURKB (human) = AURKB (human) (UniProt Q96GD4)
TXK (human) = TXK (human) (UniProt P42681)
MAP3K14 (human) = MAP3K14 (human) (UniProt Q99558)
EPHB4 (human) = EPHB4 (human) (UniProt P54760)

Sequence of CHEK2 (human) (O96017 whole entry, looked up): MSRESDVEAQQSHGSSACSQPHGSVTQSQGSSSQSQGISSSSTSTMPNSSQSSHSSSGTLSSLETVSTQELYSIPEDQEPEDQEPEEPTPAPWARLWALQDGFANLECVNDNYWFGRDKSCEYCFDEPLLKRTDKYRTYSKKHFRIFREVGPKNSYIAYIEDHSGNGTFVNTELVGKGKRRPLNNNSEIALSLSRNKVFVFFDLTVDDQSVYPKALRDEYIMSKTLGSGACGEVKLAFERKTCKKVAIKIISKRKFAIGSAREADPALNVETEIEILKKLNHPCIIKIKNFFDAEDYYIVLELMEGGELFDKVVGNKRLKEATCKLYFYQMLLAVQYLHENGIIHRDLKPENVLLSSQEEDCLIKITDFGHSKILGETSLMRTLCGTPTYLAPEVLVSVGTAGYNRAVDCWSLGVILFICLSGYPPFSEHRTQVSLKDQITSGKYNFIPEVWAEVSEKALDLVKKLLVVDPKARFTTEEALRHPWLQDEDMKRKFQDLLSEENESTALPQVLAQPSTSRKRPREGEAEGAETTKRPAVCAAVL
Sequence of ERBB2 (human) (P04626 whole entry, looked up): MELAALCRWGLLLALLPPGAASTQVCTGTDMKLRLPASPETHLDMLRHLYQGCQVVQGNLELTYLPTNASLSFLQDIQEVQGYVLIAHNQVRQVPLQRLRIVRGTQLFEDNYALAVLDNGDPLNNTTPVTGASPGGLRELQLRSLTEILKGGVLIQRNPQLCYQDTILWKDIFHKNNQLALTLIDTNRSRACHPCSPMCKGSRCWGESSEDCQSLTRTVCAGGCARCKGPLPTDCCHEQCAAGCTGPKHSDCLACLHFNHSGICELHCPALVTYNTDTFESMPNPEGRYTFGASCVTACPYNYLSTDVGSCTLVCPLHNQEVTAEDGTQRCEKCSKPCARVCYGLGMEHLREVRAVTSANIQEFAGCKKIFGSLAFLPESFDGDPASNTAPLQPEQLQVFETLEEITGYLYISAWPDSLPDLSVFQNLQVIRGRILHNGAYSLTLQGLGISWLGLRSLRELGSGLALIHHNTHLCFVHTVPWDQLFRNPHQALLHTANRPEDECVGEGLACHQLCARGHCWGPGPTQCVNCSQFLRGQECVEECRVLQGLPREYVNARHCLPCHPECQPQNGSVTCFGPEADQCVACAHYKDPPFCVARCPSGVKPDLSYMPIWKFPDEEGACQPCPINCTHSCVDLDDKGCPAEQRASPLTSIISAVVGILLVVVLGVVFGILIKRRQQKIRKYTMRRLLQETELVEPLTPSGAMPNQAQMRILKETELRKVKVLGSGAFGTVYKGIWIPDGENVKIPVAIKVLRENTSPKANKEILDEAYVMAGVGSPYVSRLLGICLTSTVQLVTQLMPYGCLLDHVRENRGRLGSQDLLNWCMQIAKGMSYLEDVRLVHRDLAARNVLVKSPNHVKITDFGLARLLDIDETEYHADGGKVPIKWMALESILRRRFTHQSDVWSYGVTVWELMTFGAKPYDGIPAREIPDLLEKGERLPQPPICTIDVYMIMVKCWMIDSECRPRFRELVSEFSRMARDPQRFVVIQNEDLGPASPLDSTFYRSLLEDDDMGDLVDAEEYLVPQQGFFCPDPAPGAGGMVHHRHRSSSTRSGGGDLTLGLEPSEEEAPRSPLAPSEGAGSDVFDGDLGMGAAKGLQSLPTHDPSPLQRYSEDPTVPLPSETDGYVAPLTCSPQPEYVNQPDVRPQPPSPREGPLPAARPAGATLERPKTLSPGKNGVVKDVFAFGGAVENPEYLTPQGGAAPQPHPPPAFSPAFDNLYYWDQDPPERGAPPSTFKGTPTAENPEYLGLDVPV
Sequence of MAPK14 (human) (Q16539 whole entry, looked up): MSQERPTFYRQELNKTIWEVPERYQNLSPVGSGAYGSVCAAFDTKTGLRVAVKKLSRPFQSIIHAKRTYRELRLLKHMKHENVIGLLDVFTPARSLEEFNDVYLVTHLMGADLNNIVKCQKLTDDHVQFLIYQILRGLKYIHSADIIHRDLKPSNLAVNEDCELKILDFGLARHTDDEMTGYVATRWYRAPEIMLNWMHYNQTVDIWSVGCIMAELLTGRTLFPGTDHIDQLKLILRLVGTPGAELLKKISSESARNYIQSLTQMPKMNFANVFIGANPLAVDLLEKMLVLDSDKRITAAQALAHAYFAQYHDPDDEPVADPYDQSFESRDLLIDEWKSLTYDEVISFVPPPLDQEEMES
Sequence of MAPK11 (human) (Q15759 whole entry, looked up): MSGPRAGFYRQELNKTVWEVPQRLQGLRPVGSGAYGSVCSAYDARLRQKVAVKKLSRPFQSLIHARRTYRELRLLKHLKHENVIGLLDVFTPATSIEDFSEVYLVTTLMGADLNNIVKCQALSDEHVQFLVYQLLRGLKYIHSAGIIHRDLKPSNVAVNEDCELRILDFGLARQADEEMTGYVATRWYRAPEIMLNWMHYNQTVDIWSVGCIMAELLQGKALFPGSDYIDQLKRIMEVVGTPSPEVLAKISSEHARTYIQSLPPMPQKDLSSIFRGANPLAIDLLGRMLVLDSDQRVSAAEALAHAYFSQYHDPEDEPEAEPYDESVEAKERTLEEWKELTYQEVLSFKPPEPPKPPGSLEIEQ
Sequence of FYN (human) (P06241 whole entry, looked up): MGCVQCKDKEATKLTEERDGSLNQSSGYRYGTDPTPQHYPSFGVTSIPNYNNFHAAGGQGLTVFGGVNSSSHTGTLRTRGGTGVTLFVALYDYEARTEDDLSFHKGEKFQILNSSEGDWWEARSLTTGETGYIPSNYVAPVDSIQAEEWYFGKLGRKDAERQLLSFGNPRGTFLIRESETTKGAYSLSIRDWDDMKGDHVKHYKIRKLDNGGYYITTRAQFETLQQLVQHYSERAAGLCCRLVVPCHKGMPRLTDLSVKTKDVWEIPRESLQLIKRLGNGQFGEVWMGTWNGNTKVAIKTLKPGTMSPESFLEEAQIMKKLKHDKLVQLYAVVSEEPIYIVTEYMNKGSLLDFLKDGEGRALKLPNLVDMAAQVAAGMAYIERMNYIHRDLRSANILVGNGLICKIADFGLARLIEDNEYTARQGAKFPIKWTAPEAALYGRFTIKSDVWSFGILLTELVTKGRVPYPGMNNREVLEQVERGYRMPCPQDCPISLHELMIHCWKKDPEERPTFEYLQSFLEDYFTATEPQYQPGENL
Sequence of FER (human) (P16591 whole entry, looked up): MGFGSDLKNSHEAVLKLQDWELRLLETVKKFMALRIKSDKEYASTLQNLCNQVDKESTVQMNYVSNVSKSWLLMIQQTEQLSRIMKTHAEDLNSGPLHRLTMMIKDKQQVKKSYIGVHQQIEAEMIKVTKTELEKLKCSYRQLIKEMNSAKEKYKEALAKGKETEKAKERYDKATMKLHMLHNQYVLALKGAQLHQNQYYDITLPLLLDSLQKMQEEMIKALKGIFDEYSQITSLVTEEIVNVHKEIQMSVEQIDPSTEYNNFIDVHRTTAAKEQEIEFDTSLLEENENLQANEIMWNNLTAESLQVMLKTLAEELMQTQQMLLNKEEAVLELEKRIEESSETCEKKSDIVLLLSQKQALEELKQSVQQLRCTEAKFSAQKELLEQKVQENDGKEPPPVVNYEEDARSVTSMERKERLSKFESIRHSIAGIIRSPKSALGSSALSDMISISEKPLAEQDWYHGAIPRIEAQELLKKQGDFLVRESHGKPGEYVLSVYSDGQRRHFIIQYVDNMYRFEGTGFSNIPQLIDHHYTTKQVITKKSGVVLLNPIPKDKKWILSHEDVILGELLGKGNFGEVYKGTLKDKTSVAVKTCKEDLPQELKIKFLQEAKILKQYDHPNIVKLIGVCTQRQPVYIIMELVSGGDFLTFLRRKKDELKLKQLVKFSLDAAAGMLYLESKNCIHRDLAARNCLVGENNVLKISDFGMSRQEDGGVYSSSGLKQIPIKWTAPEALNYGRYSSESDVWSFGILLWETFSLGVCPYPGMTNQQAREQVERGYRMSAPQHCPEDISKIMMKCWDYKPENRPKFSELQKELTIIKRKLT
Sequence of TEC (human) (P42680 whole entry, looked up): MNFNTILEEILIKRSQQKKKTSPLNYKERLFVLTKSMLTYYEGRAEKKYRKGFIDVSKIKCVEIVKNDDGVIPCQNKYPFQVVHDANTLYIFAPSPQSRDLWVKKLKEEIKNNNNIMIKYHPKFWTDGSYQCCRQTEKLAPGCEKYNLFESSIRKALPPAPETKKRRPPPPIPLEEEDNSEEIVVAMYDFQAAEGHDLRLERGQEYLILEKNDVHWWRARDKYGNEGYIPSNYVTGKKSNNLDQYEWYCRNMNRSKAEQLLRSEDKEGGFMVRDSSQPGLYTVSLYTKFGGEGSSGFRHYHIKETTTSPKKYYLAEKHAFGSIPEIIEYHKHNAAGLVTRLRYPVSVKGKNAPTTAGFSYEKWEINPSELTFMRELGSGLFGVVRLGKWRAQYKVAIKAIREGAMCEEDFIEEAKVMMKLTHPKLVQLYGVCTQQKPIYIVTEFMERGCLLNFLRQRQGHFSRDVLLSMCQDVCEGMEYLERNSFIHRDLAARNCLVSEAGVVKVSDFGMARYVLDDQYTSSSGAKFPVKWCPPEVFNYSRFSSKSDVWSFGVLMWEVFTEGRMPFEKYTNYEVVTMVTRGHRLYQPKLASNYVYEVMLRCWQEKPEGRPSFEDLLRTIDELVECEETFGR
Sequence of PHKG1 (human) (Q16816 whole entry, looked up): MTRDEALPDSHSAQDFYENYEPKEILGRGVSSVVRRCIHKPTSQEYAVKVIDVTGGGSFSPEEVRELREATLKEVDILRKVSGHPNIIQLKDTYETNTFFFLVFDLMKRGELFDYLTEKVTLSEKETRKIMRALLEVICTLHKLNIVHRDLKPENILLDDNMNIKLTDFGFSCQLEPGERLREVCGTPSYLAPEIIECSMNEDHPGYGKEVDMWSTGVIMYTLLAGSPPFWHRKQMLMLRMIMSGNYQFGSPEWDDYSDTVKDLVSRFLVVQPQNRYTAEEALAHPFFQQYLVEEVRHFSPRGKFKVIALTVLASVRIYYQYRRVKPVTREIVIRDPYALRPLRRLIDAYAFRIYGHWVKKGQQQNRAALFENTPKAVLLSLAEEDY

With `C#Cc1cccc(Nc2ncnc3cc(OCCOC)c(OCCOC)cc23)c1` as the compound, how does the residual activity (PHKG1 (human)) read?
Its residual activity is 93.2%.

What about the residual activity (RIPK2 (human)) of the same compound?
Its residual activity is 57.9%.

What about the residual activity (MAP3K5 (human)) of the same compound?
The residual activity was 102%.

And the residual activity (MAPK11 (human))?
The residual activity was 97.8%.

And the residual activity (FYN (human))?
Its residual activity is 94.7%.

What about the residual activity (STK17A (human)) of the same compound?
Its residual activity is 99.7%.

What about the residual activity (PIM1 (human)) of the same compound?
Its residual activity is 97%.

And the residual activity (TEC (human))?
The residual activity was 96.2%.

What about the residual activity (CDC42BPB (human)) of the same compound?
The residual activity was 98.5%.

And the residual activity (NEK2 (human))?
The residual activity was 100%.

And the residual activity (ACVR1 (human))?
The residual activity was 101%.

What about the residual activity (EPHA2 (human)) of the same compound?
Its residual activity is 91.3%.

And the residual activity (ROCK1 (human))?
Its residual activity is 107%.

And the residual activity (PAK4 (human))?
Its residual activity is 91.8%.

And the residual activity (MERTK (human))?
Its residual activity is 99%.

And the residual activity (CDK4 CCND1 (human))?
The residual activity was 96%.

And the residual activity (PRKCB1 (human))?
Its residual activity is 92.4%.

What about the residual activity (FER (human)) of the same compound?
Its residual activity is 94%.

What about the residual activity (ERBB2 (human)) of the same compound?
Its residual activity is 52.8%.

What about the residual activity (AKT1 (human)) of the same compound?
The residual activity was 93.7%.

And the residual activity (EPHB3 (human))?
Its residual activity is 58%.

What about the residual activity (MAPK14 (human)) of the same compound?
Its residual activity is 95.3%.

What about the residual activity (CDK6 CCND1 (human)) of the same compound?
Its residual activity is 98.7%.

And the residual activity (CHEK2 (human))?
The residual activity was 100%.

What about the residual activity (CLK3 (human)) of the same compound?
Its residual activity is 108%.

And the residual activity (CDK4 CCND3 (human))?
The residual activity was 103%.

What about the residual activity (DAPK1 (human)) of the same compound?
The residual activity was 103%.

What about the residual activity (MST1R (human)) of the same compound?
The residual activity was 93.6%.

And the residual activity (DCLK2 (human))?
The residual activity was 102%.

And the residual activity (PLK1 (human))?
Its residual activity is 100%.

What about the residual activity (MAPK12 (human)) of the same compound?
The residual activity was 97.8%.

And the residual activity (TGFBR2 (human))?
The residual activity was 91.8%.

What about the residual activity (PDGFRA (human)) of the same compound?
The residual activity was 84.4%.

And the residual activity (JAK3 JH1 JH2 (human))?
The residual activity was 91.3%.

What does the source list for `COc1cc2ncnc(Nc3ccc(F)c(Cl)c3)c2cc1OCCCN1CCOCC1`?
residual activity (PHKG1 (human)): 68.8%; residual activity (MAP3K5 (human)): 103%; residual activity (MAPK11 (human)): 95.1%; residual activity (FYN (human)): 92.2%; residual activity (STK17A (human)): 96%; residual activity (PIM1 (human)): 86.4%; residual activity (TEC (human)): 104%; residual activity (TBK1 (human)): 83.1%; residual activity (NEK2 (human)): 98.4%; residual activity (ACVR1 (human)): 106%; residual activity (EPHA2 (human)): 85.7%; residual activity (ROCK1 (human)): 106%; residual activity (PAK4 (human)): 90.2%; residual activity (MERTK (human)): 95.9%; residual activity (CDK4 CCND1 (human)): 94.3%; residual activity (PRKCB1 (human)): 95%; residual activity (FER (human)): 94.1%; residual activity (ERBB2 (human)): 34.2%; residual activity (AKT1 (human)): 94.1%; residual activity (CSNK1D (human)): 90.4%; residual activity (EPHB3 (human)): 57.5%; residual activity (MAPK14 (human)): 74.6%; residual activity (CDK6 CCND1 (human)): 98.7%; residual activity [1]: 102%; residual activity (CHEK2 (human)): 84%; residual activity (CLK3 (human)): 106%; residual activity (CDK4 CCND3 (human)): 101%; residual activity (DAPK1 (human)): 109%; residual activity (AURKB (human)): 106%; residual activity (MST1R (human)): 97.7%; residual activity (DCLK2 (human)): 101%; residual activity (PLK1 (human)): 97%; residual activity (MAPK12 (human)): 97.5%; residual activity (TGFBR2 (human)): 93.8%; residual activity (TXK (human)): 83.2%; residual activity (PDGFRA (human)): 97%; residual activity (MAP3K14 (human)): 104%; residual activity (JAK3 JH1 JH2 (human)): 96.6%

`Clc1ccc(Nc2nnc(Cc3ccncc3)c3ccccc23)cc1` was tested. Which residual activity (PHKG1 (human)) did it give?
The residual activity was 94.2%.

And the residual activity (RIPK2 (human))?
The residual activity was 111%.

What about the residual activity (MAP3K5 (human)) of the same compound?
Its residual activity is 101%.

What about the residual activity (MAPK11 (human)) of the same compound?
The residual activity was 96.9%.

What about the residual activity (FYN (human)) of the same compound?
Its residual activity is 104%.

And the residual activity (STK17A (human))?
The residual activity was 99.4%.

And the residual activity (PIM1 (human))?
Its residual activity is 102%.

And the residual activity (TEC (human))?
The residual activity was 137%.

What about the residual activity (TBK1 (human)) of the same compound?
Its residual activity is 104%.

What about the residual activity (CDC42BPB (human)) of the same compound?
The residual activity was 99.5%.

What about the residual activity (NEK2 (human)) of the same compound?
The residual activity was 101%.

What about the residual activity (ACVR1 (human)) of the same compound?
The residual activity was 96.1%.

And the residual activity (EPHA2 (human))?
The residual activity was 92.5%.

What about the residual activity (ROCK1 (human)) of the same compound?
Its residual activity is 110%.

What about the residual activity (PAK4 (human)) of the same compound?
Its residual activity is 95.8%.

And the residual activity (MERTK (human))?
The residual activity was 116%.

And the residual activity (EPHB4 (human))?
Its residual activity is 85.1%.

What about the residual activity (CDK4 CCND1 (human)) of the same compound?
The residual activity was 96.6%.

And the residual activity (PRKCB1 (human))?
The residual activity was 83.5%.

And the residual activity (FER (human))?
The residual activity was 91.4%.

What about the residual activity (ERBB2 (human)) of the same compound?
Its residual activity is 101%.

What about the residual activity (AKT1 (human)) of the same compound?
The residual activity was 103%.

And the residual activity (CSNK1D (human))?
Its residual activity is 92.2%.

And the residual activity (EPHB3 (human))?
Its residual activity is 65.1%.

And the residual activity (MAPK14 (human))?
The residual activity was 98.2%.

And the residual activity (CDK6 CCND1 (human))?
Its residual activity is 93%.

What about the residual activity [1] of the same compound?
The residual activity was 89.4%.

What about the residual activity (CHEK2 (human)) of the same compound?
The residual activity was 98.5%.

What about the residual activity (CLK3 (human)) of the same compound?
Its residual activity is 105%.

What about the residual activity (CDK4 CCND3 (human)) of the same compound?
Its residual activity is 102%.

What about the residual activity (DAPK1 (human)) of the same compound?
Its residual activity is 105%.

And the residual activity (AURKB (human))?
Its residual activity is 90%.

And the residual activity (MST1R (human))?
Its residual activity is 91.6%.

And the residual activity (DCLK2 (human))?
The residual activity was 100%.

What about the residual activity (PLK1 (human)) of the same compound?
Its residual activity is 95.9%.

What about the residual activity (MAPK12 (human)) of the same compound?
The residual activity was 96.8%.

And the residual activity (TGFBR2 (human))?
Its residual activity is 100%.

And the residual activity (TXK (human))?
The residual activity was 110%.

What about the residual activity (PDGFRA (human)) of the same compound?
Its residual activity is 33.3%.

What about the residual activity (MAP3K14 (human)) of the same compound?
Its residual activity is 126%.

And the residual activity (JAK3 JH1 JH2 (human))?
The residual activity was 92.1%.
